# Test results from paper PMC11864979, “First-in-class ultralong-target-residence-time p38α inhibitors as a mitosis-targeted therapy for colorectal cancer” (Nature Cancer, 2025).
# Where two headings read alike, the source gives them in different places.
# Legend:
# Experiment in all cases: selectivity profiling in a panel of 340 wild-type kinases (Reaction Biology Europe)
# Assay type in all cases: binding
# 340 wild-type kinases [1] = biological target: T1, 340 wild-type kinases (Homo sapiens, UniProt P21709)
# T1 construct: purchased Reaction Biology Europe
# T1 sequence (P21709 26-976): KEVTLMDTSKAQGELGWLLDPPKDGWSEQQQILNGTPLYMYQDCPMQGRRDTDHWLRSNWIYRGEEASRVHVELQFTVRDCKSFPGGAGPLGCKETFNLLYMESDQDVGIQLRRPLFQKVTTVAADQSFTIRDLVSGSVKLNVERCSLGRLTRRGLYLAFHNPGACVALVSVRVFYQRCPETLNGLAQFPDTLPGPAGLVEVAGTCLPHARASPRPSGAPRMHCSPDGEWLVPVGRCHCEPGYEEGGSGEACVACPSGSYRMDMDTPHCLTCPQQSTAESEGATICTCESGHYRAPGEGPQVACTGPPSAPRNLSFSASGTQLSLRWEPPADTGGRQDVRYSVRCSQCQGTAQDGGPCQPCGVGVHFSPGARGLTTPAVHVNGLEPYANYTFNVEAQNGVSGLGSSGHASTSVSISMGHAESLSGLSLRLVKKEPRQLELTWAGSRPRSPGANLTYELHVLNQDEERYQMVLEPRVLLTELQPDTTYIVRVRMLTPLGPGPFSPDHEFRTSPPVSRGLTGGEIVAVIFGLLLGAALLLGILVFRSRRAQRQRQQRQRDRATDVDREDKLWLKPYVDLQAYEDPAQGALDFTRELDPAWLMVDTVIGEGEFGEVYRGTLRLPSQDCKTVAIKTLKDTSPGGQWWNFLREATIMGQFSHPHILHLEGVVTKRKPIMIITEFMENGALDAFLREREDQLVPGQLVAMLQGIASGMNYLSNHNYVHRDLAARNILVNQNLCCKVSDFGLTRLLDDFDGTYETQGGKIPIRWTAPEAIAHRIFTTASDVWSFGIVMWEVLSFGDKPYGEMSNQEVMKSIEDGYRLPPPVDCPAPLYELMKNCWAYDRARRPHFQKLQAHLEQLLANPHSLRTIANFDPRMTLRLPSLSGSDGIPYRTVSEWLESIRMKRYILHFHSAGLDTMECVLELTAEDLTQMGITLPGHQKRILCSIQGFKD
# 340 wild-type kinases [2] = biological target: T2, 340 wild-type kinases (Homo sapiens, UniProt P45985)
# T2 construct: purchased Reaction Biology Europe
# T2 sequence (P45985 1-399): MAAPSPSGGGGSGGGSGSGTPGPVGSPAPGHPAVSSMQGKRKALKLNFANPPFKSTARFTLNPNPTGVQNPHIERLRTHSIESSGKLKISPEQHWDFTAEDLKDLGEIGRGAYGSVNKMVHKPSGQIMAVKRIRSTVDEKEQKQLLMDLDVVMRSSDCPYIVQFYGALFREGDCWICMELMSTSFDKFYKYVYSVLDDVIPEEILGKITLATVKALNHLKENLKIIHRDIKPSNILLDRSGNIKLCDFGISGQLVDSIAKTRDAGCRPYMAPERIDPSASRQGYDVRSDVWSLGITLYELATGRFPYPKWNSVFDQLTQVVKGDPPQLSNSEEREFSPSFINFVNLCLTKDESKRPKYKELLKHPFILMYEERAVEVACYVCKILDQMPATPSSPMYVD
# 340 wild-type kinases [3] = biological target: T3, 340 wild-type kinases (Homo sapiens, UniProt P42681)
# T3 construct: purchased Reaction Biology Europe
# T3 sequence (P42681 1-527): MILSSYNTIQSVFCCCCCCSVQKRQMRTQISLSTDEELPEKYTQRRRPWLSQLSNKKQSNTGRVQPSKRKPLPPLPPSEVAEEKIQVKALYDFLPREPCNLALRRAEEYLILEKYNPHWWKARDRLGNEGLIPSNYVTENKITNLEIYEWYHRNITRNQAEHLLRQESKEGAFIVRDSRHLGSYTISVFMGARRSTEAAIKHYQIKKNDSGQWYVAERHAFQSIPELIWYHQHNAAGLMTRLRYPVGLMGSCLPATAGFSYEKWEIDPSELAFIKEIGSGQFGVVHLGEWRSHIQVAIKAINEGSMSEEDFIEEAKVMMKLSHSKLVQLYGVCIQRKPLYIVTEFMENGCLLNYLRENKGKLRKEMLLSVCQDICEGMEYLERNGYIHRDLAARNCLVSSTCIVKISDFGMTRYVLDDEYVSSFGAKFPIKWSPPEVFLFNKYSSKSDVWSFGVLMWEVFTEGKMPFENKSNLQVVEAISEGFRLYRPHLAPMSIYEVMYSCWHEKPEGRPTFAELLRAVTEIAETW
# 340 wild-type kinases [4] = biological target: T4, 340 wild-type kinases (Homo sapiens, UniProt P22455)
# T4 construct: purchased Reaction Biology Europe
# T4 sequence (P22455 22-802): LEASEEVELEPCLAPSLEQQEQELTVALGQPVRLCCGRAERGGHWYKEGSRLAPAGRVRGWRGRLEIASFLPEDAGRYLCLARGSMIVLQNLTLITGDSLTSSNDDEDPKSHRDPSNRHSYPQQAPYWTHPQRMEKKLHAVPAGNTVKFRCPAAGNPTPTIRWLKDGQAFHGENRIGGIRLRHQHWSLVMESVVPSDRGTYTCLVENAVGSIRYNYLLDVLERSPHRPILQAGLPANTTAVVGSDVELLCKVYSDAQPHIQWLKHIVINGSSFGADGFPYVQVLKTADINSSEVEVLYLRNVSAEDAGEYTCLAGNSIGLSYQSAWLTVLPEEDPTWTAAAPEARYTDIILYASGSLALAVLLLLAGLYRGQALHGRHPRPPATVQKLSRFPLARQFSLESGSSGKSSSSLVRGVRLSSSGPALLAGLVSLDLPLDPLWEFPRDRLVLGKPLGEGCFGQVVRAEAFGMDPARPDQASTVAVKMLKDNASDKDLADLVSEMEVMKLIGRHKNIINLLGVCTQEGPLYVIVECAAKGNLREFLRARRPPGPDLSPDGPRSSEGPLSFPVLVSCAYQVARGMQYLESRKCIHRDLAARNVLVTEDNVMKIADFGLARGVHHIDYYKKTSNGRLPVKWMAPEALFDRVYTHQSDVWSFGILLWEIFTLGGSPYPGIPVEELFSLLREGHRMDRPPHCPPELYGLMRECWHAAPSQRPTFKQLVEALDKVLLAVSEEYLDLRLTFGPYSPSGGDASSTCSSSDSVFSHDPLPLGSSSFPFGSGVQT
# 340 wild-type kinases [5] = biological target: T5, 340 wild-type kinases (Homo sapiens, UniProt O43781)
# T5 construct: purchased Reaction Biology Europe
# T5 sequence (O43781 1-588): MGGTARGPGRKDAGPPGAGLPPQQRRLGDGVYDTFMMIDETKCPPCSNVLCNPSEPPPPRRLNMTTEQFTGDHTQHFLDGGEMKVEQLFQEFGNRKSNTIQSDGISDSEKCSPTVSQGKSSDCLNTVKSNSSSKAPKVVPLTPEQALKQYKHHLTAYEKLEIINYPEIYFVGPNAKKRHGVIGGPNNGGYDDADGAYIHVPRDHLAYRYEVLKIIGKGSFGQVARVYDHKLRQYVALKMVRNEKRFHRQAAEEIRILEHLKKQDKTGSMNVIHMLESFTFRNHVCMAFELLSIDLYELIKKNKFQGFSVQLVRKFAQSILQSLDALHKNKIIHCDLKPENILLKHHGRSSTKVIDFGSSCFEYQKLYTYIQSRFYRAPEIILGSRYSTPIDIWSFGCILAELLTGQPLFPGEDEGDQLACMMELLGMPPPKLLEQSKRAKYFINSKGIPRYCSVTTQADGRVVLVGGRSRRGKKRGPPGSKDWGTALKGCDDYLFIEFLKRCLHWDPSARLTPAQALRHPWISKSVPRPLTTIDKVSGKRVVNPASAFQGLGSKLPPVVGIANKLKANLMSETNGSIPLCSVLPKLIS
structure (smiles),measurement,setting,value
CNC(=O)c1ccc2c(c1)C(=O)c1ccc(Nc3ccc(F)c(NC(=O)C4CC4)c3)cc1CC2 [Compound 2015],remaining activity at 0.2 µM,"340 wild-type kinases [1]; 0.2 µM 2015, read-out: EPHA1 residual activity",87.2%
same,remaining activity at 1 µM,"340 wild-type kinases [1]; 1 µM 2015, read-out: EPHA1 residual activity",82.1%
same,remaining activity at 0.2 µM,"340 wild-type kinases [1]; EPHA1, 0.2 µM, read-out: residual activity",87.2%
same,remaining activity at 1 µM,"340 wild-type kinases [1]; EPHA1, 1 µM, read-out: residual activity",82.1%
same,remaining activity at 0.2 µM,"340 wild-type kinases [2]; 0.2 µM 2015, read-out: MKK4 residual activity",81.9%
same,remaining activity at 1 µM,"340 wild-type kinases [2]; 1 µM 2015, read-out: MKK4 residual activity",91.3%
same,remaining activity at 0.2 µM,"340 wild-type kinases [2]; MKK4, 0.2 µM, read-out: residual activity",81.9%
same,remaining activity at 1 µM,"340 wild-type kinases [2]; MKK4, 1 µM, read-out: residual activity",91.3%
same,remaining activity at 0.2 µM,"340 wild-type kinases [3]; 0.2 µM 2015, read-out: TXK residual activity",94.2%
same,remaining activity at 1 µM,"340 wild-type kinases [3]; 1 µM 2015, read-out: TXK residual activity",90%
same,remaining activity at 0.2 µM,"340 wild-type kinases [3]; TXK, 0.2 µM, read-out: residual activity",94.2%
same,remaining activity at 1 µM,"340 wild-type kinases [3]; TXK, 1 µM, read-out: residual activity",90%
same,remaining activity at 0.2 µM,"340 wild-type kinases [4]; 0.2 µM 2015, read-out: FGFR4 residual activity",107%
same,remaining activity at 1 µM,"340 wild-type kinases [4]; 1 µM 2015, read-out: FGFR4 residual activity",95.9%
same,remaining activity at 0.2 µM,"340 wild-type kinases [4]; FGFR4, 0.2 µM, read-out: residual activity",107%
same,remaining activity at 1 µM,"340 wild-type kinases [4]; FGFR4, 1 µM, read-out: residual activity",95.9%
same,remaining activity at 0.2 µM,"340 wild-type kinases [5]; 0.2 µM 2015, read-out: DYRK3 residual activity",104%
same,remaining activity at 1 µM,"340 wild-type kinases [5]; 1 µM 2015, read-out: DYRK3 residual activity",107%
same,remaining activity at 0.2 µM,"340 wild-type kinases [5]; DYRK3, 0.2 µM, read-out: residual activity",104%
same,remaining activity at 1 µM,"340 wild-type kinases [5]; DYRK3, 1 µM, read-out: residual activity",107%
